The values that follow come from the NIST ThermoML archive (doi:10.1021/acs.jced.8b01205).

The structures appear in SMILES notation. Numbers after ± are expanded uncertainties.

Data set [1] is described as follows: Molar enthalpy of transition or fusion. Conditions: Crystal; DSC.
The conditions of data set [2]: Crystal; DSC.

As to `N#CCC(N)=O` [2-cyanoethanamide], in data set [1], the “Molar enthalpy of transition or fusion” value turned out to be 5.41 ± 0.43 kcal/mol. Also, in data set [2], the Triple point temperature was found to be 392.84 ± 1.2 K.
